Bounds are passed on as bounds.

Consider ten molecules from patent US20260295053A1, “COMPOUNDS FOR DEGRADATION AND INHIBITION OF KRAS (G12D) PROTEIN” (Shenzhen Ionova Life Science Co., Ltd., priority 2023, published 2026).

The assay deals with T1, KRAS (G12D) (Homo sapiens, UniProt P01116, G12D).
T1 construct: in-cell western with KRAS G12D antibody after 24 h
T1 sequence (P01116 1-188 isoform P01116-2 G12D): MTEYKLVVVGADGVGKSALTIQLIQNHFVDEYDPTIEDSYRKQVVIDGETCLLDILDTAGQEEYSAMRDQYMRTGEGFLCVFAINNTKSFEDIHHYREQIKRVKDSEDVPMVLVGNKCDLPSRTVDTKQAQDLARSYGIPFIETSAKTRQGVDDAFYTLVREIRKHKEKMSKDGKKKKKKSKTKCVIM
The assay can be described thus: KRAS (G12D) cellular degradation assay in AsPC-1 cells. It is filed as cell-based. The note with it: 24 hours, antibody fluorescence (Odyssey CLX), DC50 half-maximal degradation concentration. As to the method: ASPC-1 and PK-59 cellular assays ASPC-1 (ATCC cat. CRL-1682) and PK-59 (Nanjing Cobioer, Cat. No. CBP61184) were used in KRAS cellular degradation, pERK inhibition and proliferation assays. The two cell lines were maintained following vendor's instructions. For monitoring KRAS (G12D) cellular degradation and pERK biomarker inhibition, cells were seeded into a 96-well plate with 22,000 and 16,000 cells/well for assays in ASPC-1 and PK-59, respectively. Cells were incubated at 37° C. with 5% CO2 and cell density was monitored until ^~90% confluency was reached. Compounds were serially diluted at a 1:3 ratio and dispensed into each well at final concentrations ranging from […] to 1.5 nM. After incubation for 24 hours, the culture media were removed and the cells were subjected to fixation, permeabilization and blocking (Intercept blocking buffer, Li-cor). For KRAS (G12D) degradation, the cells were treated with primary antibody (KRAS G12D antibody, Cell Signaling Technologies, Cat. No. CST14429) and for β-actin (β-actin mAb, Beyotime, Cat. No. AF-5001), and followed by secondary antibodies, Anti-rabbit IgG (H+L) (DyLight™ 800 4×PEG Conjugate) or IRDye® 680RD Goat anti-Mouse IgG. For pERK inhibition assay, cells were treated with primary antibodies for pERK (Phospho-p44/42 MAPK (Erk1/2) (Thr202/Tyr204) (D13.14.4E) XP® Rabbit mAb, Cell Signaling Technologies, Cat. No. CST-4370) and β-actin (β-actin mAb, Beyotime, Cat. No. AF-5001), and followed by secondary antibodies, Anti-rabbit IgG (H+L) (DyLight™ 800 4×PEG Conjugate) or IRDye® 680RD Goat anti-Mouse IgG. Fluorescence signals were read on Odyssey CLX instrument. For cell proliferation assays, cells were seeded into a 96-well plate at 3,500 and 800 cells/well for assays in ASPC-1 and PK-59, respectively. Cells were incubated at 37° C. with 5% CO2 for overnight. Compounds were serially diluted at a 1:3 ratio and dispensed into each well at final concentrations ranging from […] to 1.5 nM. After incubation for 6 days, cell viability reagent (CellTiter Glo, Promega, Cat. No. G7573) was added to each well and luminescence was recorded on Molecular Devices Spectramax iD3 instrument. IC50, half-maximal inhibitory concentration for pERK inhibition or cell proliferation, and DC50, half-maximal degradation concentration in KRAS (G12D) cellular degradation were determined by fitting the corresponding dose response curves using GraphPad Prism software.
Wherein “A” means the value <10 nM, “B” means 10 nM<the value <100 nM, “C” means 100 nM<the value <1000 nM, and “D” means the value >1000 nM, in which, the value means the value of DC50 or IC50. NT means not tested.
In the case of `CCn1nccc1-c1ccc([C@H](CO)NC(=O)[C@@H]2C[C@@H](O)CN2C(=O)[C@H](C(C)C)n2cc(-c3ccc(COc4c(-c5c(C)c(F)c(F)c6[nH]ncc56)c(C5CC5)cc5c(N6C[C@@H]7C[C@H]6CN7)nc(OC6CCC7(CC6)COC7)nc45)cc3)nn2)cc1` [Example 110, (2S,4R)-1-((2S)-2-(4-(4-(((2-((2-oxaspiro[3.5]nonan-7-yl)oxy)-4-((1S,4S)-2,5-diazabicyclo[2.2.1]heptan-2-yl)-6-cyclopropyl-7-(6,7-difluoro-5-methyl-1H-indazol-4-yl)quinazolin-8-yl)oxy)methyl)phenyl)-1H-1,2,3-triazol-1-yl)-3-methylbutanoyl)-N—((R)-1-(4-(1-ethyl-1H-pyrazol-5-yl)phenyl)-2-hydroxyethyl)-4-hydroxypyrrolidine-2-carboxamide], the DC50 (usually the midpoint of the concentration-degradation curve) is below 10 nM.

Consider `CO[C@@H](C)COc1nc(N2C[C@@H]3C[C@H]2CN3)c2cc(C3CC3)c(-c3c(C)c(F)cc4[nH]ncc34)c(OCc3ccc(-c4cn([C@H](C(=O)N5C[C@H](O)C[C@H]5C(=O)N[C@H](C#Cc5cccc6sc(C)nc56)CO)C(C)C)nn4)cc3)c2n1` [Example 117, (2S,4R)-1-((2S)-2-(4-(4-(((4-((1S,4S)-2,5-diazabicyclo[2.2.1]heptan-2-yl)-6-cyclopropyl-7-(6-fluoro-5-methyl-1H-indazol-4-yl)-2-((S)-2-methoxypropoxy)quinazolin-8-yl)oxy)methyl)phenyl)-1H-1,2,3-triazol-1-yl)-3-methylbutanoyl)-4-hydroxy-N—((R)-1-hydroxy-4-(2-methylbenzo[d]thiazol-4-yl)but-3-yn-2-yl)pyrrolidine-2-carboxamide], for which the DC50 is 10 to 100 nM.

Take `CO[C@@H](C)COc1nc(N2C[C@@H]3C[C@H]2CN3)c2cc(C3CC3)c(-c3c(C)c(F)cc4[nH]ncc34)c(OCc3ccc(-c4cn([C@H](C(=O)N5C[C@H](O)C[C@H]5C(=O)N[C@H](C#Cc5cncc6ncsc56)CO)C(C)C)nn4)cc3)c2n1` [Example 118, (2S,4R)-1-((2S)-2-(4-(4-(((4-((1S,4S)-2,5-diazabicyclo[2.2.1]heptan-2-yl)-6-cyclopropyl-7-(6-fluoro-5-methyl-1H-indazol-4-yl)-2-((S)-2-methoxypropoxy)quinazolin-8-yl)oxy)methyl)phenyl)-1H-1,2,3-triazol-1-yl)-3-methylbutanoyl)-4-hydroxy-N—((R)-1-hydroxy-4-(thiazolo[4,5-c]pyridin-7-yl)but-3-yn-2-yl)pyrrolidine-2-carboxamide]: the DC50 was 10 to 100 nM.

On to `Cc1ncsc1-c1ccc([C@H](CO)NC(=O)[C@@H]2C[C@@H](O)CN2C(=O)[C@H](C(C)C)n2cc(-c3ccc(COc4c(-c5c(C)c(F)c(F)c6[nH]ncc56)c(C5CCC5)cc5c(N6C[C@@H]7C[C@H]6CN7)nc(OC6CCOCC6)nc45)cc3)nn2)cc1` [Example 120, (2S,4R)-1-((2S)-2-(4-(4-(((4-((1S,4S)-2,5-diazabicyclo[2.2.1]heptan-2-yl)-6-cyclobutyl-7-(6,7-difluoro-5-methyl-1H-indazol-4-yl)-2-((tetrahydro-2H-pyran-4-yl)oxy)quinazolin-8-yl)oxy)methyl)phenyl)-1H-1,2,3-triazol-1-yl)-3-methylbutanoyl)-4-hydroxy-N—((R)-2-hydroxy-1-(4-(4-methylthiazol-5-yl)phenyl)ethyl)pyrrolidine-2-carboxamide], for which the DC50 was 10 to 100 nM.

Consider `CO[C@@H](C)COc1nc(N2C[C@@H]3C[C@H]2CN3)c2cc(C3CC3)c(-c3c(C)c(F)cc4[nH]ncc34)c(OCc3ccc(-c4cn([C@H](C(=O)N5C[C@H](O)C[C@H]5C(=O)N[C@H](C#Cc5ccccc5)CO)C(C)C)nn4)cc3)c2n1` [Example 123, (2S,4R)-1-((2S)-2-(4-(4-(((4-((1S,4S)-2,5-diazabicyclo[2.2.1]heptan-2-yl)-6-cyclopropyl-7-(6-fluoro-5-methyl-1H-indazol-4-yl)-2-((S)-2-methoxypropoxy)quinazolin-8-yl)oxy)methyl)phenyl)-1H-1,2,3-triazol-1-yl)-3-methylbutanoyl)-4-hydroxy-N—((R)-1-hydroxy-4-phenylbut-3-yn-2-yl)pyrrolidine-2-carboxamide], for which the DC50 lay within 10 to 100 nM.

With `CCn1nccc1-c1ccc([C@H](CO)NC(=O)[C@@H]2C[C@@H](O)CN2C(=O)[C@H](C(C)C)n2cc(-c3ccc(COc4c(-c5c(C)c(F)cc6[nH]ncc56)c(C5CC5)cc5c(N6C[C@@H]7C[C@H]6CN7)nc(N6CCC(OC)CC6)nc45)cc3)nn2)cc1` [Example 124, (2S,4R)-1-((2S)-2-(4-(4-(((4-((1S,4S)-2,5-diazabicyclo[2.2.1]heptan-2-yl)-6-cyclopropyl-7-(6-fluoro-5-methyl-1H-indazol-4-yl)-2-(4-methoxypiperidin-1-yl)quinazolin-8-yl)oxy)methyl)phenyl)-1H-1,2,3-triazol-1-yl)-3-methylbutanoyl)-N—((R)-1-(4-(1-ethyl-1H-pyrazol-5-yl)phenyl)-2-hydroxyethyl)-4-hydroxypyrrolidine-2-carboxamide], the DC50 is below 10 nM.

Take `CCn1nccc1-c1ccc([C@H](CO)NC(=O)[C@@H]2C[C@@H](O)CN2C(=O)[C@H](C(C)C)n2cc(-c3ccc(COc4c(-c5c(C)c(F)cc6[nH]ncc56)c(C5CC5)cc5c(N6C[C@@H]7C[C@H]6CN7)nc(N6CCC(COC)C6)nc45)cc3)nn2)cc1` (stereo partly drawn) [Example 125, (2S,4R)-1-((2S)-2-(4-(4-(((4-((1S,4S)-2,5-diazabicyclo[2.2.1]heptan-2-yl)-6-cyclopropyl-7-(6-fluoro-5-methyl-1H-indazol-4-yl)-2-(3-(methoxymethyl)pyrrolidin-1-yl)quinazolin-8-yl)oxy)methyl)phenyl)-1H-1,2,3-triazol-1-yl)-3-methylbutanoyl)-N—((R)-1-(4-(1-ethyl-1H-pyrazol-5-yl)phenyl)-2-hydroxyethyl)-4-hydroxypyrrolidine-2-carboxamide]: the DC50 was in the range of 10 to 100 nM.

In turn, `CCn1nccc1-c1ccc([C@H](CO)NC(=O)[C@@H]2C[C@@H](O)CN2C(=O)[C@H](C(C)C)n2cc(-c3ccc(COc4c(-c5c(C)c(F)cc6[nH]ncc56)c(C5CC5)cc5c(N6C[C@@H]7C[C@H]6CN7)nc(N6CC(OC)C6)nc45)cc3)nn2)cc1` [Example 126, (2S,4R)-1-((2S)-2-(4-(4-(((4-((1S,4S)-2,5-diazabicyclo[2.2.1]heptan-2-yl)-6-cyclopropyl-7-(6-fluoro-5-methyl-1H-indazol-4-yl)-2-(3-methoxyazetidin-1-yl)quinazolin-8-yl)oxy)methyl)phenyl)-1H-1,2,3-triazol-1-yl)-3-methylbutanoyl)-N—((R)-1-(4-(1-ethyl-1H-pyrazol-5-yl)phenyl)-2-hydroxyethyl)-4-hydroxypyrrolidine-2-carboxamide] came in with a DC50 of 10 to 100 nM.

Molecule `CO[C@@H](C)COc1nc(N2C[C@@H]3C[C@H]2CN3)c2cc(C3CC3)c(-c3c(C)c(F)cc4[nH]ncc34)c(OCc3ccc(-c4cn([C@H](C(=O)N5C[C@H](O)C[C@H]5C(=O)N[C@H](C#Cc5cccc6c5cnn6C)CO)C(C)C)nn4)cc3)c2n1` [Example 134, (2S,4R)-1-((2S)-2-(4-(4-(((4-((1S,4S)-2,5-diazabicyclo[2.2.1]heptan-2-yl)-6-cyclopropyl-7-(6-fluoro-5-methyl-1H-indazol-4-yl)-2-((S)-2-methoxypropoxy)quinazolin-8-yl)oxy)methyl)phenyl)-1H-1,2,3-triazol-1-yl)-3-methylbutanoyl)-4-hydroxy-N—((R)-1-hydroxy-4-(1-methyl-1H-indazol-4-yl)but-3-yn-2-yl)pyrrolidine-2-carboxamide] showed a DC50 of 10 to 100 nM.

Turning to `CCn1nccc1-c1ccc([C@H](CO)NC(=O)[C@@H]2C[C@@H](O)CN2C(=O)[C@H](C(C)C)n2cc(-c3ccc(COc4c(-c5c(C)c(F)cc6[nH]ncc56)c(C5CCC5)cc5c(N6C[C@@H]7C[C@H]6CN7)nc(OC6CCC7(CC6)COC7)nc45)cc3)nn2)cc1` [Example 137, (2S,4R)-1-((2S)-2-(4-(4-(((2-((2-oxaspiro[3.5]nonan-7-yl)oxy)-4-((1S,4S)-2,5-diazabicyclo[2.2.1]heptan-2-yl)-6-cyclobutyl-7-(6-fluoro-5-methyl-1H-indazol-4-yl)quinazolin-8-yl)oxy)methyl)phenyl)-1H-1,2,3-triazol-1-yl)-3-methylbutanoyl)-N—((R)-1-(4-(1-ethyl-1H-pyrazol-5-yl)phenyl)-2-hydroxyethyl)-4-hydroxypyrrolidine-2-carboxamide], the DC50 is below 10 nM.
